Measurements published in US4999352A, “1-(1-aryl-2-hydroxyethyl)-imidazoles and salts thereof, medicaments containing these compounds, and the use thereof” (Hoechst Aktiengesellschaft, priority 1987, dated 1991).

Tested on: tetrabenazine-induced ptosis
Experiment: Test for influence on tetrabenazine-induced ptosis in mice
Type: in vivo, mice (male, SPF-71, KF:NMRI)
Conditions: Mus musculus, po, 0.5 h, p.o., tetrabenazine 40 mg/kg i.p. 30 minutes after test substance, ptosis scored 30 minutes later, 50% of control ptosis, 95% confidence limit in parentheses
Description: Test for influence on tetrabenazine-induced ptosis
Male mice (SPF-71, KF:NMRI) weighing 18-22 g were allotted at random to treatment groups of 6 animals. The test substances were suspended in 1% strength methylhydroxyethylcellulose (MH)/water and administered orally at 10 ml/kg of body weight. A control group was given the solvent (1% strength MH), and the standard group was given 10 mg/kg p.o. of nomifensine (in 1% strength MH). The tetrabenazine solution used was prepared from methanesulfonate (.congruent.76.8% of base), and an amount corresponding to 40 mg/kg of tetrabenazine base was administered intraperitoneally 30 minutes after the test substances. The ptosis was assessed according to the following scale 30 minutes after administration of tetrabenazine: […]
The ptosis scores were cumulated and the result of the groups related to the maximum score achievable (6×.varies.=100%). By means of linear regression, the ED50 (mg/kg) was determined as the dose at which the degree of ptosis is 50% of the value determined in the control group.

Structure (SMILES)	ED50 [mg/kg]
C=CCC1(C(O)C(c2cccc(Cl)c2)n2ccnc2)CCCCC1 (centres unmarked) [Example 1, 1-(1-Allyl-1-cyclohexyl)-2-(3-chlorophenyl)-2-(1-imidazolyl)-ethanol]	3.9
C=CCC(C)(C)C(O)C(c1cccc(Cl)c1)n1ccnc1 (centres unmarked) [Example 2, 1-(3Chlorophenyl)-3,3-dimethyl-1-(1-imidazolyl)-5-hexen-2-ol]	2
C=CCC(C)(C)C(O)C(c1ccc(-c2ccccc2)cc1)n1ccnc1 (centres unmarked) [Example 13]	1.3
CCCC(C)(C)C(O)C(c1ccc(-c2ccccc2)cc1)n1ccnc1 (centres unmarked) [Example 26, 1-(4-Diphenyl)-3,3-dimethyl-1-(1-imidazolyl)-2-hexanol]	1.2
CN1Cc2c(N)cccc2C(c2ccccc2)C1 (centres unmarked) [nomifensine, reference compound]	1.2
